# Laboratory results reported in patent US11833146B2, “Dementia therapeutic agent combining pyrazoloquinoline derivative and donepezil” (Eisai R&D Management Co., Ltd., priority 2017, dated 2023).
# System: rats with scopolamine-induced cognitive impairment
# Test: Novel object recognition test using rats with scopolamine-induced cognitive impairment
# Type: in vivo, rat (male Long Evans)
# Conditions: for effect on the percentage of exploration of the novel object (in words): vs disease control group, p<0.05; for percentage of exploration of the novel object in T2: scopolamine 0.7 mg/kg s.c., mean±standard error
# Excerpt: [Test Example 1] Novel Object Recognition Test Using Rats with Scopolamine-Induced Cognitive Impairment
# Acetylcholine nervous system disorder has been reported in Alzheimer's disease and Lewy body dementia (Whitehouse et al., Science, 1982, vol. 215, p. 1237, Shimada et al., Neurology, vol. 73, p. 273, 2009, Tiraboschi et al., Neurology 54 (2000) 407-411, Peny et. al., NeuroReport, vol. 5, pp. 747-749 (1994)), and scopolamine-administered animals are utilizable as an animal model for Alzheimer's disease and Lewy body dementia.
# Scopolamine is a muscarine receptor inhibitor which blocks acetylcholine nervous system transmission.
# 6-week-old male Long Evans rats (Institute for Animal Reproduction) were subjected to the test. A habituation process to the experimental procedure was carried out once per day for 2 days prior to the test. In the habituation process, a vehicle was administered to the rats, and then the rats were placed in an empty test apparatus (40 cm×30 cm×45 cm height) and allowed to explore for 3 minutes, and after then placed in a waiting chamber (13 cm×30 cm×45 cm height) for about 1 minute, they were returned to the empty test apparatus again and left for 5 minutes.
# An acquisition trial (T1) was carried out on the day of the test. Compound (I) was orally administered 2 hours before T1. Donepezil hydrochloride was orally administered 1 hour before T1. Scopolamine (Wako Pure Chemical Industries, Ltd.) was subcutaneously administered 30 minutes before T1 at a dose of 0.7 mg/kg. In T1, the rats were habituated to the empty test apparatus for 3 minutes and then placed in the waiting chamber. After setting two identical objects in the test apparatus, the rats were returned into the test apparatus again and allowed to freely explore the two identical objects for 5 minutes. The rats were then returned into their rearing cages. After 2 hours, a retention trial (T2) was carried out. The rats were placed in the empty test apparatus for 3 minutes for habituation, and were then transferred into the waiting chamber. After setting an object used in T1 (“familiar” object) and an object not used in T1 (“novel” object) in the test apparatus, the rats were again returned into the test apparatus and allowed to freely explore these objects for 3 minutes. The objects were wiped with a wet wipe impregnated with ethanol after each experiment so as to leave no trace of odor. The behaviors of the rats during T1 and T2 were recorded by a digital video camera, and the total exploration time for each object was manually measured using a stopwatch. Exploratory behavior was defined as the behavior in which the rat brings its nose within 2 cm of the object and directs its nose toward the object.
# In the novel object recognition test, the percentage of exploration of the novel object in T2 is considered to be an index for amnesia, reflecting discrimination between the familiar object and the novel object. The percentage of exploration of the novel object was calculated by the following formula. The percentage of exploration of the novel object (%)=N/(N+F)×100 F: time spent in exploring the familiar object N: time spent in exploring the novel object
# Rats whose total time spent in exploring the objects during T1 or T2 was 10 seconds or less or rats whose percentage of the time spent in exploring either of the objects during T1 was not less than 70% or not more than 30% of the total exploration time were excluded from the data analysis.
# The results were expressed as mean±standard error. The difference between the normal control group untreated with scopolamine and the disease control group treated with scopolamine was analyzed by an unpaired t-test (significant difference: *). The difference between the disease control group and the single drug-treated group was analyzed by Dunnett-type multiple comparison test (significant difference: #).
compound,measurement,setting,value
"COc1ncc(C)c(-c2ccc3c(c2)[nH]c(=O)c2cnn([C@H]4CCOC4)c23)c1C [Compound (I), (S)-7-(2-methoxy-3,5-dimethylpyridin-4-yl)-1-(tetrahydrofuran-3-yl)-1H-pyrazolo[4,3-c]quinoline-4(5H)-one]",effect on the percentage of exploration of the novel object (in words),1 mg/kg,did not exhibit a significant effect
same,effect on the percentage of exploration of the novel object (in words),3.3 mg/kg,significant ameliorative effect
same,percentage of exploration of the novel object in T2,"Table 5, Compound (I) 1 mg/kg alone, oral",64.9 ± 2.2%
"COc1cc2c(cc1OC)C(=O)C(CC1CCN(Cc3ccccc3)CC1)C2 (stereo not drawn) [Donepezil, donepezil]",effect on the percentage of exploration of the novel object (in words),0.03 mg/kg,did not exhibit a significant effect
same,effect on the percentage of exploration of the novel object (in words),0.3 mg/kg,significant ameliorative effect
same,percentage of exploration of the novel object in T2,"Table 3, Donepezil 0.03 mg/kg oral 1 h before T1",62.7 ± 3.6%
same,percentage of exploration of the novel object in T2,"Table 4, Donepezil 0.1 mg/kg oral 1 h before T1",66.2 ± 4.0%
same,percentage of exploration of the novel object in T2,"Table 4, Donepezil 0.3 mg/kg oral 1 h before T1, # significant vs disease control",70.4 ± 4.8# %
same,percentage of exploration of the novel object in T2,"Table 5, Donepezil 0.03 mg/kg alone, oral",57.8 ± 4.0%
